# Results from US20260048155A1, “BIOCOMPATIBLE PARAHYDROGEN HYPERPOLARIZED SOLUTIONS BY PRECIPITATION AND RE-DISSOLUTION” (North Carolina State University, priority 2022, published 2026).
# Columns and labels:
# Type in all cases: physicochemical
# [1] = SABRE polarization build-up and T1 relaxation dynamics in SABRE solvents; settings: for 13C T1 decay / polarization build-up Tb: 0.4 μT
# Protocol: CD3OD is widely used as the SABRE-reaction-hosting solvent because it provides convenient means of attaining high-field NMR spectrometer lock. However, non-deuterated polarization media may be preferred for biomedical applications. For this reason, systematic relaxation dynamics studies were performed comparing CD3OD, CH3OH, and C2H5OH for SABRE-SHEATH [1-^13C]pyruvate hyperpolarization, investigating relevant parameters for these solvents and for fixed concentrations of pyruvate, SABRE catalyst, and DMSO (30 mM, 6 mM, and 40 mM, respectively). However, the ethanol sample was prepared with only 6 mM pyruvate and 10% H2O due to limited solubility. The optimal Br was similar in all investigated samples (≈0.4 μT, FIG. 4A). […] (FIG. 4B). Thus, all the experiments described below were performed using these optimized Br and Tr parameters.
# The polarization build-up (Tb) and decay (T1) at 0.4 μT were similar: Tb=13.7±0.6 s versus 19.3±0.6 s; and T1=26.0±0.4 s versus 29.1±0.8 s, respectively (FIGS. 4C, 4E). P13C values were also similar; in one representative example of polarization build-up, P13C was 7.8±0.1% vs. 8.5±0.1% for CH3OH and CD3OD media, respectively, FIG. 4D. […] For ethanol, 1.4-fold lower P13C values were obtained in this mixture compared to CH3OH and CD3OD, which is rationalized by a more efficient relaxation at the SABRE-SHEATH field, FIG. 4E.
# Data fitting and error propagation for relaxation and polarization build-up data presented in FIGS. 4A-4I: Data in FIGS. 4C, 4F, 4H was fitted using mono-exponential functions (solid lines) and extracted values with error of polarization build-up or relaxation are presented in bar plots (FIGS. 4D, 4E, 4G, 4I).
# [2] = Precipitation and syringe/cotton filtering of HP pyruvate at 10 mT; settings: 4.5 mL EtAc, filter at 10 mT, 1 mL H2O, 90-100 s procedure, repeated three times
# Protocol: As described above, filtering of non-hyperpolarized pyruvate from the precipitated solutions was tested using in-line syringe filters (FIGS. 9A-9C), and the obtained solutions of supernatant and dissolved microcrystals were analyzed with high resolution NMR. Cotton filters were also used as a performance metric for the syringe filters. Each sample was SABRE-SHEATH-polarized as described previously for three times to quantify the mean base-line hyperpolarization before precipitation (for this batch of samples, P13C=10±1% in CH3OH). Because a short lifetime of ^13C magnetization was expected at ultralow field, the precipitation procedure was performed at an elevated field of 10 mT (see setup described in section 5). At this field, proton and ^13C Zeeman levels are separated by >350 kHz, i.e., an order of magnitude greater than the dipolar spin-spin couplings present in the solid state. To this end, after the hyperpolarization procedure was completed, the sample was rapidly removed from the 0.30 μT field, depressurized, and filled into a 10-mL plastic syringe held at a 10 mT field mounted to a Luer-locked filter. After depressurization (˜10-15 s after hyperpolarization) 4.5 mL EtAc was added, the solution was stirred manually, and the filtration was started, taking a total of about 1 min following hyperpolarization. […]
# [3] = Lifetime (13C T1) of polarization in precipitated and aqueous samples; settings: for T1 in the aqueous phase after Re-D SABRE: N=2
# Protocol: (§1) To investigate the impact of precipitate relaxation in variable magnetic fields during the dissolution process, the Re-D SABRE experiment was repeated, omitting the addition of water after precipitation (i.e., the decay of ^13C HP signal in the dissolved phase of the precipitated samples was measured). […] For (iii), P13C was still much lower compared to the sample that rested at the 1.4 T magnet (setup iv), i.e., P13C=0.08±0.02% and P13C=3.4±0.9%, respectively—this signal is entirely derived from the remaining dissolved pyruvate in solution (2.3±0.6 mM in the 500 μL sample of EtAc and CH3OH, FIG. 17) not from the precipitated micro-crystalline phase. […] This observation is important because it means the Re-D SABRE process can be successfully performed at storage fields as low as 0.3 T. The rapid ^13C T1 of HP [1-^13C]pyruvate in the EtAc fraction at Earth's field, estimated to be <1.3 s, may be caused by the high catalyst: substrate ratio in the EtAc.
# HP signals from the sample before or after re-dissolution were measured as a function of an additional delay td (ranging from 0 to 23 s; t=tprec+td), during which P13C was allowed to decay. At the end of td, the signal was detected either immediately (green circles, FIG. 6D, sampling the decay rate of the residual dissolved-phase pyruvate) or after the dissolution with D2O (squares, FIG. 6D, sampling the decay rate of the entire pyruvate (precipitated and dissolved) pool). Assuming a mono-exponential decay, the apparent ^13C T1 was 7.0±0.4 s or 5.3±0.2 s, respectively. […] In sharp contrast, T1 values in the aqueous phase measured after the Re-D SABRE process were 41.6±0.3 s in H2O and 102±1.3 s in D2O, FIG. 6E, using a series of pulse-detect NMR experiments with low flip angle of 9° (N=2).
# [4] = Precipitation without water addition: 13C polarization of residual dissolved pyruvate in organic phase; settings: for P13C in precipitated sample, no water added / 13C polarization in precipitated sample, no water added: residual dissolved pyruvate in EtAc/CH3OH
# Protocol: as §1
# Description of the magnets used in the precipitation and relaxation study: The precipitation and phase separation approach was investigated at 4 different magnetic fields: (i) Earth's field; (ii) 10 mT; (iii) 0.3 T; and (iv) 1.4 T. For (i), the samples were positioned in a plastic holder at a defined position in the laboratory at which a magnetic field of ≈40 μT was measured. For (ii), a modified setup of permanent magnets creating a 10 mT magnetic field over a volume of ≈20×10×10 cm^3 was employed. For (iii), a hollow cylindrical magnet (K&J Magnetics, Inc., P/N RY04Y0) was used with a length of 5.1 cm and an inner bore of approximately 6.4 mm diameter in which the NMR tube was positioned. For (iv), the NMR benchtop spectrometer was used, which approximately provides the constant 1.4 T field up to 10 cm above the magnet center.
compound,measurement,setting,value
CC(=O)[13C](=O)O [[1-^13C]pyruvate],13C T1 decay,[1]; 30 mM in CD3OD,26.0 ± 0.4 s
same,polarization build-up Tb,[1]; 30 mM in CD3OD,13.7 ± 0.6 s
same,13C T1 relaxation time,"[1]; 30 mM in CD3OD, 1.4 T",86 ± 2 s
same,13C T1 decay,[1]; 30 mM in CH3OH,29.1 ± 0.8 s
same,polarization build-up Tb,[1]; 30 mM in CH3OH,19.3 ± 0.6 s
same,13C T1 relaxation time,"[1]; 30 mM in CH3OH, 1.4 T",59.3 ± 0.8 s
same,T1 relaxation time,"[1]; 60 mM in CH3OH, 1.4 T",59.3 ± 0.5 s
same,T1 relaxation time,"[1]; 60 mM in CH3OH, 300 nT",34.6 ± 1.1 s
same,polarization build-up time constant Tb,"[1]; 60 mM in CH3OH, 300 nT",22.0 ± 0.7 s
same,1-13C T1,"[1]; dissolved in CH3OH:catalyst mixture, Earth's field",46.5 ± 0.9 s
same,HP 13C signal after precipitation and filtering,[2],no HP ^13C signal was observed
same,T1 in the aqueous phase after Re-D SABRE,"[3]; D2O, 1.4 T",102 ± 1.3 s
same,13C T1 in the EtAc fraction,"[3]; Earth's field, estimated",< 1.3 s
same,T1 in the aqueous phase after Re-D SABRE,"[3]; H2O, 1.4 T",41.6 ± 0.3 s
same,"apparent 13C T1, entire pyruvate (precipitated and dissolved) pool","[3]; precipitated sample, 1.4 T, detected after dissolution with D2O",5.3 ± 0.2 s
same,"apparent 13C T1, residual dissolved-phase pyruvate","[3]; precipitated sample, 1.4 T, detected immediately, mono-exponential",7.0 ± 0.4 s
same,"P13C in precipitated sample, no water added",[4]; 0.3 T (iii),0.08±0.02%
same,"P13C in precipitated sample, no water added",[4]; 1.4 T (iv),3.4±0.9%
same,"13C polarization in precipitated sample, no water added",[4]; 10 mT (ii),no measurable ^13C polarization was observed
same,"13C polarization in precipitated sample, no water added",[4]; Earth's field (i),no measurable ^13C polarization was observed
same,P13C in (iii) 0.3 T lower than in (iv) 1.4 T,[4]; dissolved phase in EtAc fraction,≈ 40 times
